According to patent US12187720B2, “Compounds for treatment of cancer” (ONCTERNAL THERAPEUTICS, INC., priority 2010, dated 2025):
Read-outs that look alike come from different tables or passages of the source.

Key:
[1] = Metabolic stability in mouse liver microsomes; type: in vitro ADME; conditions: for half-life at 0.5 μM: mouse, liver microsomes, pH 7.4, Table 20, read-out: Half life in Mouse liver microsome
in vivo [2] = conditions: male, ICR, mouse, plasma, iv, 15 mg/kg
[3] = Pharmacokinetic study in Sprague-Dawley rats
[4] = test system: tubulin (colchicine, vinblastine and paclitaxel binding sites); experiment: Mass spectrometry competitive binding assay on tubulin
Excerpt: MS competition binding assay. […] Each reaction was run in triplicate.

[5] = Rotarod test (in vivo neurotoxicity) in ICR mice; parameters: species or system mouse; conditions: 1h 5 or 15 mg/kg, vinblastine 0.5 mg/kg, i.p. daily
Description: Rotarod test. […] The rotarod test was performed twice a week.

[6] = Metabolic stability in dog liver microsomes; type: in vitro ADME; conditions: Table 20; for half-life at 0.5 μM: dog, dog liver microsomes, pH 7.4, read-out: Half life in Dog liver microsome
[7] = test system: A375 human melanoma xenograft; experiment: In vivo efficacy, A375 human melanoma xenograft in mice
Description: DTIC at 60 mg/kg was used as a positive control again.
PC-3 and A375 tumor xenograft studies.
(§1) In vivo antitumor activity [tumor growth inhibition (% T/C), tumor growth delay (T-C value), and tumor cell kill (total log cell kill)].

in vivo [8] = conditions: Sprague-Dawley, rat, plasma
PC-3 cells = experiment: Apoptosis detection by ELISA (cytoplasmic DNA-histone complexes), PC-3 cells; type: cell-based, human; conditions: PC-3 and A375 cells, 24 h
Excerpt: The levels of DNA-histone complexes were used to represent cell apoptosis.
Apoptosis detection by ELISA. Quantification of the enrichment of mono- and oligonucleosomes in the cytoplasm was used to determine the ability of the compounds to induce apoptosis (cell death detection ELISA PLUS, Roche, Germany) following the manufacturer's instructions.

PC-3 xenografts = conditions: for mice that lost more than 15% body weight: mouse, in vivo
Excerpt: as §1

[9] = Metabolic stability in monkey liver microsomes; type: in vitro ADME; conditions: Table 20
Bovine brain tubulin = experiment: In vitro tubulin polymerization assay (bovine brain tubulin); type: biochemical; conditions: 10 μM
[10] = Metabolic stability in rat liver microsomes; type: in vitro ADME; conditions: Table 20; for half-life at 0.5 μM: rat, liver microsomes, pH 7.4, read-out: Half life in Rat liver microsome
[11] = Metabolic stability in human liver microsomes; conditions: for half-life at 0.5 μM: human, liver microsomes, pH 7.4
NCI/ADR-RES = experiment: SRB cytotoxicity assay, P-gp over-expressing NCI/ADR-RES cells; type: cell-based, human; conditions: NCI/ADR-RES versus OVCAR-8
MES-SA/DX5 = experiment: SRB growth inhibition assay, P-gp over-expressing MES-SA/DX5 cells; type: cell-based; conditions: Table 6; read-out: IC50 ± SEM MES-SA/Dx5
[12] = Pharmacokinetic study in ICR mice
WM-164 melanoma cells = experiment: Microtubule imaging (immunofluorescence) in WM-164 melanoma cells; type: cell-based, human; conditions: 18 h
Excerpt: Primary antibody for tubulin and fluorescence-labeled secondary antibody were subsequently added to the cells. Cell nuclei were stained by DAPI. Whole Cell Stain Green was also applied to all cells. All images were acquired with an Olympus IX71 inverted fluorescence microscope (Olympus Corp., Tokyo, Japan) with overlays from separate images of tubulin (red), nuclei (blue), and whole cells (green).

B16-F1 melanoma cells = experiment: B16-F1 melanoma colony formation assay in soft agar; type: cell-based, mouse; conditions: 14 days
Description: B16-F1 melanoma cells were plated at a colony-forming density (2000 cells per well on six-well plates) on top of 0.8% base agar. Cells were grown in 0.4% agar together with DMEM medium supplemented with fetal bovine serum and an antibiotic-antimycotic solution at 37° C. in an atmosphere of 95% air and 5% CO2. […] Compounds were added to the media from 1 mM DMSO stock solutions, and a corresponding dilution of DMSO was used as control. Cells were grown for 14 days. Plates were photographed, and the number of colonies was measured by Artek 880 Automated Colony Counter (Artek Systems Corporation, Farmingdale, NY).

A375 cells = experiment: Cell cycle analysis (flow cytometry) in A375 cells; type: cell-based, human; conditions: 24 h
[13] = test system: T1, tubulin colchicine binding site; experiment: [3H]-colchicine competition-binding scintillation proximity assay
T1 construct: […]

[14] = Permeability (drug-like properties); conditions: mean from duplicate studies
PC-3/TxR tumors = conditions: PC-3/TxR xenograft, b.i.d × 5/w, end point day 26
[15] = Pharmacokinetic study in beagle dogs; conditions: dog, in vivo
PC-3 = experiment: SRB cytotoxicity assay, PC-3 prostate cancer cells; type: cell-based, human; conditions: Homo sapiens, PC-3; Table 16B; read-out: IC50 in PC3
Excerpt: Cells were stained with SRB solution.

Porcine brain tubulin = experiment: In vitro microtubule polymerization assay (porcine brain tubulin); type: biochemical; conditions: 5 μM, at 15 min
glioma cells = experiment: SRB cytotoxicity assay, glioma cells; conditions: read-out: potency in glioma cells
HUVECs = experiment: Endothelial cell growth inhibition (SRB), HUVEC; type: cell-based, human
BCRP = experiment: in vitro; conditions: human

COc1cc(C(=O)c2csc(-c3ccccc3)n2)cc(OC)c1OC [1h, (2-Phenyl-thiazol-4-yl)-(3,4,5-trimethoxy-phenyl)-methanone]
half-life at 0.5 μM [1]: < 5 min
AUC (in vivo [2]): 1900 ng·h/mL
half-life (in vivo [2]): 140 min
Vss (volume of distribution following intravenous dosing) ([3]; IV, […] (1h, 2r), 5 mg/kg (5Ha, 5Hc)): 4.9 ± 1.9 L/kg
RatPK_PO10mgk_AUC ([3]; rat, PO 10 mg/kg): 37 µg·min/mL
F (percent oral bioavailability), rat ([3]; rats, PO versus IV): 3.3%
competition for tubulin binding sites [4]: specifically competed with colchicine binding to tubulin
time on the rotating rod versus vehicle group [5]: no significant difference
dose that did not cause greater than 10% loss of body weight (ICR mice, 4 consecutive days of intraperitoneal dosing): up to 30 mg/kg
half-life at 0.5 μM [6]: 19 min
T-C (tumor growth delay) ([7]; Melanoma (A375) xenograft, 20 mg/kg i.p.): 10 days
Total log cell kill ([7]; ip, 20 mg/kg, 110.4 h): 0.7
Vd (in vivo [8]; iv, […]): 7.6 L/kg
clearance (in vivo [8]; iv, […]): 6 mL/min/kg
half-life (in vivo [8]; iv, […]): 1440 min
clearance (in vivo [8]; female, iv): 7.7 ± 1 mL/min/kg
concentration inducing apoptosis (PC-3 cells): 50 nM
% T/C (PC-3 xenografts; 5 mg/kg i.p.): 29%
% T/C (PC-3 xenografts; 15 mg/kg i.p.): 4%
% T/C (PC-3 xenografts; ip, 15 mg/kg, 504 h): 4%
mice that lost more than 15% body weight (PC-3 xenografts): 1 of 8
half-life at 0.5 μM ([9]; monkey, monkey liver microsomes, pH 7.4, read-out: Half life in Monkey liver microsome): < 5 min
inhibition of tubulin polymerization (Bovine brain tubulin; 15 min): 90%
inhibition of tubulin polymerization (Bovine brain tubulin; 20 min incubation, versus vehicle): 47%
half-life at 0.5 μM [10]: 31 min

COc1cc(C(=NC#N)c2csc(-c3ccccc3)n2)cc(OC)c1OC [2j, N-((2-phenylthiazol-4-yl)(3,4,5-trimethoxyphenyl)methylene)cyanamide]
half-life at 0.5 μM [11]: < 5 min
Resistance factor (NCI/ADR-RES): 0.4

COc1cc(C(=O)c2csc(-c3ccc(F)cc3)n2)cc(OC)c1OC [2k]
Half life in Mouse liver microsome ([1]; Table 20): 9 min
dose that did not cause greater than 10% loss of body weight (mouse, in vivo, ip): ≤ 15 mg/kg
Half life in Dog liver microsome [6]: 16 min
T-C (tumor growth delay) ([7]; Melanoma (A375) xenograft, 15 mg/kg i.p.): 11 days
Total log cell kill ([7]; Melanoma (A375) xenograft, 15 mg/kg i.p., doubling time 4.6 d): 0.7
half life in human liver microsome ([11]; Table 20): 10 min
concentration inducing apoptosis (PC-3 cells): 50 nM
IC50 (MES-SA/DX5): 19 nM
% T/C (PC-3 xenografts; 5 mg/kg i.p.): 21%
% T/C (PC-3 xenografts; 15 mg/kg i.p.): 24%
% T/C (PC-3 xenografts; Prostate (PC-3) xenograft, 5 mg/kg i.p., 21 days): 21%
% T/C (PC-3 xenografts; Prostate (PC-3) xenograft, 15 mg/kg i.p., 21 days): 24%
mice that lost more than 15% body weight (PC-3 xenografts): 2 out of 7
Half life in Monkey liver microsome [9]: <5 min
Half life in Rat liver microsome [10]: 32 min
AUC ([12]; Mice, 15 mg/kg i.v.): 22000 ng·h/mL
CL ([12]; Mice, 15 mg/kg i.v.): 112 mL/min/kg
Vss ([12]; Mice, 15 mg/kg i.v.): 6.6 L/kg

COc1ccc(-c2nc(C(=O)c3ccc(F)cc3)c[nH]2)cc1 [12cb, (4-fluorophenyl)(2-(4-methoxyphenyl)-1H-imidazol-4-yl)methanone]
effect on microtubules (WM-164 melanoma cells): microtubule fragmentation
concentration with effective inhibition of colony formation (B16-F1 melanoma cells): 20 nM
concentration from which most cells are arrested in the G2/M phase (A375 cells): 200 nM

COc1cc(C(=O)c2c[nH]c(-c3ccc(C)cc3)n2)cc(OC)c1OC [12da, (2-(p-tolyl)-1H-imidazol-4-yl)(3,4,5-trimethoxyphenyl)methanone]
half-life at 0.5 μM [1]: 8 min
half-life at 0.5 μM [6]: 17 min
colchicine site binding in words [13]: highest binding affinity
half-life at 0.5 μM [11]: 23 min
effect on microtubules (WM-164 melanoma cells): microtubule fragmentation
half-life at 0.5 μM [10]: 28 min

CC(C)NCC(O)COc1cccc2ccccc12 (stereo not shown) [Propranolol]
Papp(A→B) in CaCO-2 assay [14]: (19) 10^−6 cm/s

COc1cc(C(=O)c2csc(Nc3ccc4[nH]ccc4c3)n2)cc(OC)c1OC [compound 55, (2-(1H-INDOL-5-YLAMINO)THIAZOL-4-YL)(3,4,5-TRIMETHOXYPHENYL)METHANONE]
clearance in words, rats ([3]; rat, in vivo): low clearance
competition for tubulin binding sites [4]: competed effectively with colchicine
Tumor size End (PC-3/TxR tumors; PO 10 mpk): 1152 ± 433 mm^3
Tumor size End (PC-3/TxR tumors; PO 30 mpk): 101 ± 19 mm^3
clearance in words, dogs [15]: moderate clearance
bioavailability (in vivo [8]; ICR, beagle, po): 24 to 36%
IC50 (PC-3): 28 nM
inhibition of tubulin polymerization (Porcine brain tubulin): 40%
Papp(A→B) in CaCO-2 assay [14]: 99 10^−6 cm/s
clearance in words, mice ([12]; mouse, in vivo): moderate clearance
IC50 (glioma cells): 22 nM

COc1cccc2c1C(=O)c1c(O)c3c(c(O)c1C2=O)C[C@@](O)(C(=O)CO)C[C@@H]3O[C@H]1C[C@H](N)[C@H](O)[C@H](C)O1 [doxorubicin]
times more active against endothelial cells than against cancer cells (HUVECs): not specific to endothelial cells
IC50 (HUVECs; N = 3): 274 nM

CC[C@]1(O)C[C@@H]2CN(CCc3c([nH]c4ccccc34)[C@@](C(=O)OC)(c3cc4c(cc3OC)N(C)[C@H]3[C@@](O)(C(=O)OC)[C@H](OC(C)=O)[C@]5(CC)C=CCN6CC[C@]43[C@@H]65)C2)C1 [vinblastine, reference compound]
competition for tubulin binding sites [4]: did not inhibit the colchicine-tubulin binding
time on the rotating rod versus vehicle group [5]: gradually reduced the time
IC50 (BCRP): 25 ± 1 nM
% T/C (PC-3 xenografts; 0.5 mg/kg q2d, day 22): 29%
% T/C (PC-3 xenografts; Prostate (PC-3) xenograft, 0.5 mg/kg, q2d): 29%
